The experiment addresses T1, MALT1 (Homo sapiens, UniProt Q9UDY8).
T1 construct: Avi-tagged FL MALT-1 (Pharmaron, stored at −70° C.); Avi-tag
T1 sequence (Q9UDY8 1-824): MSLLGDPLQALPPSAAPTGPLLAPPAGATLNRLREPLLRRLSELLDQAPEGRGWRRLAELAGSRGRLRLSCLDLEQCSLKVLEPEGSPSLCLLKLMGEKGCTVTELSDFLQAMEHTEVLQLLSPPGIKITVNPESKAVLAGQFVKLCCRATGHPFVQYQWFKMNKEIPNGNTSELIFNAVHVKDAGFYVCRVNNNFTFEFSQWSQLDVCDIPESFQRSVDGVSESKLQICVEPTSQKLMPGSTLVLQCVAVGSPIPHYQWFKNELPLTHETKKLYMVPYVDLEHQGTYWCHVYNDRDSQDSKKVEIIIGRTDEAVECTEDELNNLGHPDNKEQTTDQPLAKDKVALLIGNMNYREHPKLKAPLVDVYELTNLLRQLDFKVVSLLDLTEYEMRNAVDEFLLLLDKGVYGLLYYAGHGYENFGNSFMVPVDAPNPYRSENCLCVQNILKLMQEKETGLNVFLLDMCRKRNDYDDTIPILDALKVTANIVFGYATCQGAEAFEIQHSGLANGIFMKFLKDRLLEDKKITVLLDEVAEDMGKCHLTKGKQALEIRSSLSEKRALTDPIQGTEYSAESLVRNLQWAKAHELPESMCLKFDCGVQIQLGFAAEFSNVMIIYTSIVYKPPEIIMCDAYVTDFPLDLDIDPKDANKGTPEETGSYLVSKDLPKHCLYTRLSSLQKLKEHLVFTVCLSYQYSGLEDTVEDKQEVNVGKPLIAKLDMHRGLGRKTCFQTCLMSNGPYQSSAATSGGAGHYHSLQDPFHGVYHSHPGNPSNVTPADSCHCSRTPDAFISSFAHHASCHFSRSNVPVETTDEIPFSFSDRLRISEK
In words: MALT1 inhibition assay (MALT-1 Fluorogenic Peptide Cleavage Assay, Ac-LRSR-AMC substrate). Type of experiment: biochemical. The note with it: Avi-tagged FL MALT-1, 30 min pre-incubation, 90 min reaction at room temperature, fluorescence intensity. As to the method: Example 71—MALT1 Inhibition Assay
Compounds were tested for ability to bind to MALT1.
Inhibition of MALT1 activity by the presence of small molecules was evaluated using MALT-1 Fluorogenic Peptide Cleavage Assay. The assay utilizes a quenched AMC-labelled peptide that contains the MALT-1 recognition sequence and cleavage site (LRSR). MALT-1 mediated cleavage of the peptide relieves the quenching and leads to an increase in fluorescence at excitation (342 nm) and emission (441 nm).
The following reagents were obtained commercially and used to prepare standard reagent formulations as further described below: N-2-hydroxyethylpiperazine-N-2-ethane sulfonic acid (HEPES) (1 M, pH 7.5, stored at 4° C.), sodium citrate (stored at RT), tris(2-carboxyethyl) phosphine hydrochloride (T-CEP) (500 mM, stored at −20° C.), ethylenediaminetetraacetic acid (EDTA) (500 mM, stored at RT), dimethylsulfoxide (DMSO, stored at RT), 3-[(3-cholamidopropyl)dimethylammonio]-1-propane sulphate (CHAPS) (stored at RT), dimethylsulfoxide (DMSO), DMSO (Fisher Scientific, stored at RT), Avi-tagged FL MALT-1 (Pharmaron, stored at −70° C.), Ac-LRSR-AMC Peptide (SM Biochemicals, stored at −20° C.), and ultrapure water (MILLI-QR).
The standard reagent formulations used in this assay were prepared and stored as follows. A 1.1 M solution of sodium citrate (161.3 g, 500 mL) was prepared and stored at room temperature. A 10% (w/v) CHAPS solution (2.0 g, 20 mL) was prepared and stored at 4° C. A 500 mM HEPES solution having pH of 6.89 was prepared from 200 mL of a 1 M HEPES solution having a pH of 7.5 using concentrated hydrochloric acid and brought to a final volume of 400 mL with MILLI-QR H2O. The substrate, 10 mM Ac-LRSR-AMC Peptide, was prepared (10 mg, 1.370 mL DMSO) and stored at −20° C.
Compounds were plated to provide a 2% DMSO final concentration using a ProxiPlate-384 Plus F Black 384-shallow well microplate. The assay-ready plates were equilibrated to room temperature. A reaction buffer (30 mL total volume) was prepared by combining HEPES (pH 6.89, 25 mM, 1.5 mL), sodium citrate (660 mM, 18.0 mL), T-CEP (1 mM, 0.06 mL), EDTA ([…], 0.06 mL), CHAPS (0.05%, 0.15 mL), DMSO (2%, 0.6 mL), and MILLI-QR H2O (10.23 mL; 9.63 mL when backfilled to 2% DMSO) followed by thorough mixing. DMSO was added only when compound plates had not been DMSO-backfilled to 2%.
MALT-1 was thawed and kept on ice. Peptide substrate was thawed on the bench under ambient conditions. A MALT-1 enzyme working stock was prepared from Avi-tagged FL MALT-1 (40 nM in a prepared reagent volume of 16.5 μL) and the reaction buffer (13.0 mL). MALT1 working stock (5 μL) was added to each well of the microplate. MALT-1 was pre-incubated with compounds for 30 minutes at room temperature.
Two substrate working stocks (Km and 10×Km) were prepared. The 1×Km substrate was prepared from Ac-LRSR-AMC Peptide (50 μM in a prepared reagent volume of 35.0 μL) and the reaction buffer (6.965 mL). The 10×Km substrate was prepared from Ac-LRSR-AMC Peptide (280 μM in a prepared reagent volume of 196.0 μL) and the reaction buffer (6.804 mL). The reaction was initiated by the addition of substrate working stock (5 μL, 50 μM) to Km plates and the addition of substrate working stock (5 μL 280 μM) to 10×Km plates. The plates were covered and incubated on the bench at room temperature for 90 minutes.
Fluorescence intensity was determined using a CLARIOstar microplate reader (BMG LABTECH) using the optimised AMC mode. Before taking readings, a 70% gain was applied on the neutral control well. Compound data were normalised to % Inhibition and used to plot sigmoidal concentration response curves to yield various parameters including IC50.
In general, IC50 refers to the concentration needed to halve the response being measured. The low end stands for greater potency in that assay, the high end for weaker potency in that assay. For `Cn1nc([C@@H]2C[C@H]2c2ccccc2)c(C(F)(F)F)c1C(=O)Nc1ccnc(C(F)(F)F)c1` (racemic) [Compound I-40], the IC50 was above 10000 nM.

On to `Cn1nc(-c2csc3cnccc23)c(C(F)(F)F)c1C(=O)Nc1ccnc(C(F)(F)F)c1` [Compound I-1, 1-methyl-3-(thieno[2,3-c]pyridin-3-yl)-4-(trifluoromethyl)-N-(2-(trifluoromethyl)pyridin-4-yl)-1H-pyrazole-5-carboxamide], for which the IC50 is below 500 nM. As to `Cn1nc(-c2cccc3c2OCC(=O)N3)c(C(F)(F)F)c1C(=O)Nc1ccnc(C(F)(F)F)c1` [Compound I-2], the half-maximal inhibitory concentration (IC50) lay in the range of 2500 to 10000 nM.

In turn, `Cn1nc(-c2cccc3c2CCNC3=O)c(C(F)(F)F)c1C(=O)Nc1ccnc(C(F)(F)F)c1` [Compound I-3] registered a concentration for half-maximal inhibition (IC50) of 2500 to 10000 nM. Compound `Cn1nc(-c2cccc3ncn(C)c23)c(C(F)(F)F)c1C(=O)Nc1ccnc(C(F)(F)F)c1` [Compound I-4] gave an IC50 below 500 nM. The compound `Cn1cc2cccc(-c3nn(C)c(C(=O)Nc4ccnc(C(F)(F)F)c4)c3C(F)(F)F)c2n1` [Compound I-5] showed a half-inhibitory concentration (IC50) of 2500 to 10000 nM. The compound `Cn1nc(-c2c[nH]c3ncccc23)c(C(F)(F)F)c1C(=O)Nc1ccnc(C(F)(F)F)c1` [Compound I-6] yielded an IC50 below 500 nM. Then `Cn1nc(-c2cccc3cccnc23)c(C(F)(F)F)c1C(=O)Nc1ccnc(C(F)(F)F)c1` [Compound I-7], with 500 to 2500 nM; and `Cn1nc(-c2ccc(=O)n(C)c2)c(C(F)(F)F)c1C(=O)Nc1ccnc(C(F)(F)F)c1` [Compound I-8], with 2500 to 10000 nM; and `Cn1nc(-c2cccc3ocnc23)c(C(F)(F)F)c1C(=O)Nc1ccnc(C(F)(F)F)c1` [Compound I-9], with below 500 nM. With `Cn1nc(-c2cccc3nc[nH]c23)c(C(F)(F)F)c1C(=O)Nc1ccnc(C(F)(F)F)c1` [Compound I-10], the concentration for half-maximal inhibition (IC50) was 500 to 2500 nM. Then `Cn1nc(-c2cccc3ncoc23)c(C(F)(F)F)c1C(=O)Nc1ccnc(C(F)(F)F)c1` [Compound I-11], with below 500 nM; and `Cn1nc(-c2cccc3c2CC(=O)N3)c(C(F)(F)F)c1C(=O)Nc1ccnc(C(F)(F)F)c1` [Compound I-12], with 500 to 2500 nM.

Compound `Cn1nc(-c2cccc3nccn23)c(C(F)(F)F)c1C(=O)Nc1ccnc(C(F)(F)F)c1` [Compound I-13] displayed a concentration for half-maximal inhibition (IC50) of 500 to 2500 nM. As for `Cn1nc(-c2ccnc3ccoc23)c(C(F)(F)F)c1C(=O)Nc1ccnc(C(F)(F)F)c1` [Compound I-14], the IC50 was below 500 nM. Consider `Cn1nc(-c2cnc3ncccn23)c(C(F)(F)F)c1C(=O)Nc1ccnc(C(F)(F)F)c1` [Compound I-15], for which the 50% inhibitory concentration (IC50) is above 10000 nM. `Cn1nc(-c2cnc3cccnn23)c(C(F)(F)F)c1C(=O)Nc1ccnc(C(F)(F)F)c1` [Compound I-16] came in with an IC50 above 10000 nM. Turning to `Cc1ccc(-c2nn(C)c(C(=O)Nc3ccnc(C(F)(F)F)c3)c2C(F)(F)F)c(Cl)c1` [Compound I-18], the IC50 fell in the range of 500 to 2500 nM. For `COc1ccncc1-c1nn(C)c(C(=O)Nc2ccnc(C(F)(F)F)c2)c1C(F)(F)F` [Compound I-19] the value was 500 to 2500 nM; for `COc1cccc(OC)c1-c1nn(C)c(C(=O)Nc2ccnc(C(F)(F)F)c2)c1C(F)(F)F` [Compound I-20], 500 to 2500 nM. For `Cn1nc(-c2cccc3nccnc23)c(C(F)(F)F)c1C(=O)Nc1ccnc(C(F)(F)F)c1` [Compound I-21] the value was 500 to 2500 nM; for `Cn1nc(-c2ccc(C#N)c3ncccc23)c(C(F)(F)F)c1C(=O)Nc1ccnc(C(F)(F)F)c1` [Compound I-22], 500 to 2500 nM. For `Cn1nc(-c2cccc3c2NC(=O)C3)c(C(F)(F)F)c1C(=O)Nc1ccnc(C(F)(F)F)c1` [Compound I-23] the value was 500 to 2500 nM; for `Cn1nc(-c2cccc3c(C#N)nccc23)c(C(F)(F)F)c1C(=O)Nc1ccnc(C(F)(F)F)c1` [Compound I-24], 500 to 2500 nM; for `Cn1nc(-c2cccc3c2OCCCO3)c(C(F)(F)F)c1C(=O)Nc1ccnc(C(F)(F)F)c1` [Compound I-25], 2500 to 10000 nM.

`Cn1nc(-c2cnn3c2OCCC3)c(C(F)(F)F)c1C(=O)Nc1ccnc(C(F)(F)F)c1` [Compound I-26] returned an IC50 above 10000 nM. `Cn1nc(-c2cccc3cnccc23)c(C(F)(F)F)c1C(=O)Nc1ccnc(C(F)(F)F)c1` [Compound I-27] yielded a 50% inhibitory concentration (IC50) of 500 to 2500 nM. For `Cn1nc(-c2ccccc2OC2COC2)c(C(F)(F)F)c1C(=O)Nc1ccnc(C(F)(F)F)c1` [Compound I-28] the value was 2500 to 10000 nM; for `Cn1nc(-c2cccc3ccoc23)c(C(F)(F)F)c1C(=O)Nc1ccnc(C(F)(F)F)c1` [Compound I-29], below 500 nM; for `Cn1nc(-c2cccc3ccoc23)c(C(F)(F)F)c1C(=O)Nc1cnc(-n2nccn2)c(C#N)c1` [Compound I-30], below 500 nM. For `Cn1nc(-c2cccc3cnccc23)c(C(F)(F)F)c1C(=O)Nc1cnc(-n2nccn2)c(C#N)c1` [Compound I-31] the value was below 500 nM; for `Cn1nc(/C=C/c2ccccc2)c(C(F)(F)F)c1C(=O)Nc1ccnc(C(F)(F)F)c1` [Compound I-32], above 10000 nM; for `Cn1nc(-c2cccc3c2OCO3)c(C(F)(F)F)c1C(=O)Nc1ccnc(C(F)(F)F)c1` [Compound I-33], below 500 nM. Then `Cn1nc(-c2ccccc2OC2COC2)c(C(F)(F)F)c1C(=O)Nc1cnc(-n2nccn2)c(C#N)c1` [Compound I-34], with 500 to 2500 nM; and `Cn1nc(-c2ccc(C#N)cc2Cl)c(C(F)(F)F)c1C(=O)Nc1cnc(-n2nccn2)c(C#N)c1` [Compound I-35], with below 500 nM; and `Cn1nc(-c2ccc(C#N)cc2Cl)c(C(F)(F)F)c1C(=O)Nc1cnc(-n2nccn2)c(Cl)c1` [Compound I-36], with below 500 nM. Compound `Cn1nc(-c2ccc3cnccc3c2)c(C(F)(F)F)c1C(=O)Nc1ccnc(C(F)(F)F)c1` [Compound I-37] returned an IC50 above 10000 nM. `Cn1nc(-c2cccc3ncccc23)c(C(F)(F)F)c1C(=O)Nc1cnc(-n2nccn2)c(C#N)c1` [Compound I-38] registered a concentration for half-maximal inhibition (IC50) of 500 to 2500 nM. Then `Cn1nc(-c2cccc3ncccc23)c(C(F)(F)F)c1C(=O)Nc1ccnc(C(F)(F)F)c1` [Compound I-39], with 500 to 2500 nM.

Source of the values: patent publication US20260085073A1, “PYRAZOLYLCARBOXAMIDE COMPOUNDS AND THEIR USE IN THERAPY” (Hotspot Therapeutics, Inc., priority 2022, published 2026).
